According to ChEMBL document CHEMBL3091348, “Discovery of an intravenous hepatoselective glucokinase activator for the treatment of inpatient hyperglycemia” (Bioorg Med Chem Lett, 2013):
Converted amounts (≈) assume the structure as drawn. Values belong to the molecule of their own block, whether it stands above or below them.

What was measured:
[1] = Organic anion transporter-mediated drug uptake in rat hepatocytes assessed as passive uptake; format: ADME, cell-based, Hepatocyte
[2] = Lipophilicity, log D of the compound at pH 7.4; format: physicochemical; conditions: buffer
[3] = Volume of distribution at steady state in rat at 1 mg/kg, iv; format: ADME, organism-based; set-up: dose 1 mg/kg, route intravenous; conditions: in vivo, read-out: Vdss
[4] = Cmax in dog at 5 mg/kg, po; format: ADME, organism-based, Canis lupus familiaris; set-up: dose 5 mg/kg, route oral; conditions: in vivo
[5] = Cmax in rat at 5 mg/kg, po; format: ADME, organism-based; set-up: dose 5 mg/kg, route oral; conditions: in vivo
[6] = AUC (0 to 24 hrs) in dog at 1 mg/kg, iv; format: ADME, organism-based, Canis lupus familiaris; set-up: time < 24 hr, dose 1 mg/kg, route intravenous; conditions: plasma
[7] = Oral bioavailability in dog at 5 mg/kg; format: ADME, organism-based, Canis lupus familiaris; conditions: in vivo
[8] = Apparent permeability in RRCK cells at pH 5.5; format: ADME, cell-based, Canis lupus familiaris, MDCKII-LE; conditions: dog, MDCK
[9] = Organic anion transporter-mediated drug uptake in rat hepatocytes assessed as active uptake; format: ADME, cell-based, Hepatocyte
[10] = Clearance in rat at 1 mg/kg, iv; format: ADME, organism-based; set-up: dose 1 mg/kg, route intravenous; conditions: in vivo
[11] = Cmax in dog at 1 mg/kg, iv; format: ADME, organism-based, Canis lupus familiaris; set-up: dose 1 mg/kg, route intravenous; conditions: in vivo
Hexokinase-4 [12] = target: T1, Hexokinase-4 (Rattus norvegicus, UniProt P17712); experiment: Activation of glucokinase in rat INS-1 cells assessed as glucose-stimulated insulin secretion; format: cell-based, INS1
T1 sequence (P17712 whole entry): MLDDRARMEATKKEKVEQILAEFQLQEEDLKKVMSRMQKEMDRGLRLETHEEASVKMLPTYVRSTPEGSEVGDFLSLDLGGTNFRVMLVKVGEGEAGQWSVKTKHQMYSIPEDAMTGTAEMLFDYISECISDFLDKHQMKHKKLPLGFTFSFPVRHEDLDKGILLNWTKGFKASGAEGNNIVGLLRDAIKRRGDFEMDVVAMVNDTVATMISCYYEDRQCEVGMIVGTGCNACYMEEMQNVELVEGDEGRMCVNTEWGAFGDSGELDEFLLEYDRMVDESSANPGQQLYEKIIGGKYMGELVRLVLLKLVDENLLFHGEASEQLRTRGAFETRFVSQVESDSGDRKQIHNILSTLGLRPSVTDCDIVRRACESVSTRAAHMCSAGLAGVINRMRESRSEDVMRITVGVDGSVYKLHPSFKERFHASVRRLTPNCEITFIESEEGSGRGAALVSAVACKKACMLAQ

[13] = Aqueous kinetic solubility of the compound at pH 6.5; format: physicochemical; conditions: read-out: Kinetic_solubility
[14] = Apparent permeability across RRCK cells; format: ADME, cell-based, Canis lupus familiaris, MDCKII-LE; conditions: dog, MDCK
[15] = AUC (0 to 24 hrs) in rat at 1 mg/kg, iv; format: ADME, organism-based; set-up: time < 24 hr, dose 1 mg/kg, route intravenous; conditions: plasma
Rattus norvegicus [16] = experiment: Antihyperglycemic activity in rat assessed as liver to plasma AUC ratio at 5 mg/kg, iv administered as bolus after 1 to 6 hrs; format: functional
Hexokinase-4 [17] = target: T2, Hexokinase-4 (Homo sapiens, UniProt P35557); experiment: Activation of recombinant human glucokinase by G6PDH/NADP coupled assay
T2 sequence (P35557 whole entry): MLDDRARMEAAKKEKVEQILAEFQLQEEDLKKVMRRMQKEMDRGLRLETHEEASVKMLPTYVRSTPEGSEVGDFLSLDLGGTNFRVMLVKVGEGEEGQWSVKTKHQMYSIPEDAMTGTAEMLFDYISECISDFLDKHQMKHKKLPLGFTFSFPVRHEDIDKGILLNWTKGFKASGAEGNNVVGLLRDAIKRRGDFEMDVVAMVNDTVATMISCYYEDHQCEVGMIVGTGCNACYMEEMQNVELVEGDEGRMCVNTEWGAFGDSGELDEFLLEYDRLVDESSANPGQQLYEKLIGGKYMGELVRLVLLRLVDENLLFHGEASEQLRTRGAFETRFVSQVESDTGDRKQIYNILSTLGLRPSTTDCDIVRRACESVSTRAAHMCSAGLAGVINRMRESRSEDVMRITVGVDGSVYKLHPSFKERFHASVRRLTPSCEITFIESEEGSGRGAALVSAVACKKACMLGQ

[18] = Organic anion transporter-mediated drug uptake in rat hepatocytes assessed as total uptake; format: ADME, cell-based, Hepatocyte
[19] = Intrinsic clearance in human liver microsomes; format: ADME; conditions: read-out: CLH
[20] = AUC (0 to 24 hrs) in dog at 5 mg/kg, po; format: ADME, organism-based, Canis lupus familiaris; set-up: time < 24 hr, dose 5 mg/kg, route oral; conditions: plasma
[21] = Clearance in dog at 1 mg/kg, iv; format: ADME, organism-based, Canis lupus familiaris; set-up: dose 1 mg/kg, route intravenous; conditions: in vivo
[22] = AUC (0 to 24 hrs) in rat at 5 mg/kg, po; format: ADME, organism-based; set-up: time < 24 hr, dose 5 mg/kg, route oral; conditions: plasma
[23] = Apparent permeability in RRCK cells at pH 7.4; format: ADME, cell-based, Canis lupus familiaris, MDCKII-LE; conditions: dog, MDCK
[24] = Half life in dog at 1 mg/kg, iv; format: ADME, organism-based, Canis lupus familiaris; set-up: dose 1 mg/kg, route intravenous; conditions: in vivo
OATP1B3 = target: T3, OATP1B3 (Homo sapiens, UniProt Q9NPD5); experiment: Activity at OATP1B3 (unknown origin) transfected in HEK cells assessed as transporter-mediated cellular uptake relative to mock-transfected HEK cells; format: ADME, cell-based; conditions: HEK293 cells transfected with OATP1B3, read-out: FC
T3 sequence (Q9NPD5 whole entry): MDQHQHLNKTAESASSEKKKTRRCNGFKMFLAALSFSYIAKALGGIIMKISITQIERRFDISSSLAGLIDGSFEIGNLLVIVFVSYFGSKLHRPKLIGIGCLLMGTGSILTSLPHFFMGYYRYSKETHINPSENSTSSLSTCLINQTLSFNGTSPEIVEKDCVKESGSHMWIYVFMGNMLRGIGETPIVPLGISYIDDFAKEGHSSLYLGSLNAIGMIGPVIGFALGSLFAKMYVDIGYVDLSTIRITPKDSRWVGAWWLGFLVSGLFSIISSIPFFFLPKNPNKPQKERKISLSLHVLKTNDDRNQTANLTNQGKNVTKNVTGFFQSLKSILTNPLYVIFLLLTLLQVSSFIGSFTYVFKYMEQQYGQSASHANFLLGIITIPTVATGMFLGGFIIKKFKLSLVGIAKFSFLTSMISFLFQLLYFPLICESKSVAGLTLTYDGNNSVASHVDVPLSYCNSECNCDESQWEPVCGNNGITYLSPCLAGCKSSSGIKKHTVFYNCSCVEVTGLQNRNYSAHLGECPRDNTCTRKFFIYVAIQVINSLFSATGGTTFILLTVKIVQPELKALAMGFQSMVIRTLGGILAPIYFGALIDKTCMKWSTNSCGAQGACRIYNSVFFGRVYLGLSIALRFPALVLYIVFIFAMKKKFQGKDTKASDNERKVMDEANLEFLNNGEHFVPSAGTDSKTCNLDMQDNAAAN

Rattus norvegicus [25] = experiment: Antihyperglycemic activity in rat assessed as liver to plasma AUC ratio at EC50 dose, iv administered as infusion up to 4 days; format: functional
[26] = Volume of distribution at steady state in dog at 1 mg/kg, iv; format: ADME, organism-based, Canis lupus familiaris; set-up: dose 1 mg/kg, route intravenous; conditions: in vivo, read-out: Vdss
[27] = Cmax in rat at 1 mg/kg, iv; format: ADME, organism-based; set-up: dose 1 mg/kg, route intravenous; conditions: in vivo
[28] = Oral bioavailability in rat at 5 mg/kg; format: ADME, organism-based; conditions: in vivo
[29] = Apparent permeability in RRCK cells at pH 6.5; format: ADME, cell-based, Canis lupus familiaris, MDCKII-LE; conditions: dog, MDCK
OATP1B1 = target: T4, OATP1B1 (Homo sapiens, UniProt Q9Y6L6); experiment: Activity at OATP1B1 (unknown origin) transfected in HEK cells assessed as transporter-mediated cellular uptake relative to mock-transfected HEK cells; format: ADME, cell-based; conditions: HEK293 cells transfected with OATP1B1, read-out: FC
T4 sequence (Q9Y6L6 whole entry): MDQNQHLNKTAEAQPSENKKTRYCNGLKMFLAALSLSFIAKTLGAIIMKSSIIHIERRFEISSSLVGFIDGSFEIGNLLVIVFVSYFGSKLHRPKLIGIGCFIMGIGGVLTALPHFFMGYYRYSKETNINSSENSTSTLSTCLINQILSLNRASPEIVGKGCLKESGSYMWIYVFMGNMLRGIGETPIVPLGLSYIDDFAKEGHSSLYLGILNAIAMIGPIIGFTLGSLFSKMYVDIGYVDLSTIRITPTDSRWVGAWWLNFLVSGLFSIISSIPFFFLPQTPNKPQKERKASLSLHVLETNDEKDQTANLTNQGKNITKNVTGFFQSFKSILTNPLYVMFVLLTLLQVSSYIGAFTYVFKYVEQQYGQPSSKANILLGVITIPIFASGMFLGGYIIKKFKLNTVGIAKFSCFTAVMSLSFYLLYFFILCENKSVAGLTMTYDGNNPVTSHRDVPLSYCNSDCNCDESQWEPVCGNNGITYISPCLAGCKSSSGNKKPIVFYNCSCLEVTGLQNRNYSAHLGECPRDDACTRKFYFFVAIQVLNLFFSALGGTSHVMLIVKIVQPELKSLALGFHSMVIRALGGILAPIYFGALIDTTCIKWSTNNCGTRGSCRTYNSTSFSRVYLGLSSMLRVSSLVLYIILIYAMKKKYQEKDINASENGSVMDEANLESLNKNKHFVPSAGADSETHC

Rattus norvegicus [30] = experiment: Antidiabetic activity in Goto-Kakizaki rat diabetic model assessed as reduction in glucose excursion AUC at 24 mg/kg, iv administered as infusion for 4 hrs measured after 2 hrs by oral glucose tolerance test relative to control; format: functional; set-up: scale not given: the % may be the effect or the level left
[31] = Half life in rat at 1 mg/kg, iv; format: ADME, organism-based; set-up: dose 1 mg/kg, route intravenous; conditions: in vivo
Hexokinase-4 [32] = target: T1, Hexokinase-4; experiment: Activation of glucokinase in Wistar rat hepatocytes assessed as nuclear to cytosolic translocation of protein by immunofluorescence assay; format: cell-based, Hepatocyte
[33] = target: T5, Hexokinase-4 (Homo sapiens) (UniProt P35557); experiment: Activation of recombinant human glucokinase assessed as increase in enzyme Vmax for glucose by G6PDH/NADP coupled assay relative to control
T5 sequence (whole entry): T2 sequence (P35557 whole entry)

[34] = target: T5, Hexokinase-4 (Homo sapiens); experiment: Activation of recombinant human glucokinase assessed as decrease in enzyme Km for glucose by G6PDH/NADP coupled assay relative to control
Rattus norvegicus [35] = experiment: Antidiabetic activity in Goto-Kakizaki rat diabetic model assessed as reduction in glucose excursion AUC at 100 mg/kg, po measured after 1 hr by oral glucose tolerance test relative to control; set-up: scale not given: the % may be the effect or the level left

Drug uptake [1]: 12 µL/min/mg
logD [2]: -0.1
Vd [3]: 0.8 L/kg
Cmax [4]: 12.8 ng/mL
Cmax [5]: 2.5 ng/mL
AUC(0-t) at 24 h [6]: 932 ng·h/mL
bioavailability [7]: < 5%
Papp [8]: 1.4 ×10⁻⁶ cm/s
Drug uptake [9]: 55%
clearance [10]: 96 mL/min/kg
Cmax [11]: 6350 ng/mL
EC50 (Hexokinase-4 [12]): 174000 nM
solubility kinetic [13]: 428 µM (≈ 191 µg/mL)
Papp [14]: 0.5 ×10⁻⁶ cm/s
AUC(0-t) at 24 h [15]: 176 ng·h/mL
EC50 (Hexokinase-4 [17]): 201 nM
Drug uptake [18]: 22 µL/min/mg
CLint scaled [19]: < 8 mL/min/kg
AUC(0-t) at 24 h [20]: 36.6 ng·h/mL
clearance [21]: 18 mL/min/kg
AUC(0-t) at 24 h [22]: 3.4 ng·h/mL
Papp [23]: 2 ×10⁻⁶ cm/s
half-life [24]: 42 min
uptake ratio (OATP1B3): 2.3
Vd [26]: 0.4 L/kg
Cmax [27]: 1400 ng/mL
bioavailability [28]: < 1%
Papp [29]: 1.3 ×10⁻⁶ cm/s
uptake ratio (OATP1B1): 4.1
half-life [31]: 12 min
IC50 (Hexokinase-4 [32]): 1700 nM
SMILES: O=C(O)c1ccc(NC(=O)[C@H](CC2CCCC2)n2cnc(S(=O)(=O)C3CCC3)c2)nc1
Ratio AUC (Rattus norvegicus [16]): 2
Ratio AUC (Rattus norvegicus [25]): 3.5
Activity (Rattus norvegicus [30]): 15.4%

logD [2]: -0.25
Papp [14]: 0.5 ×10⁻⁶ cm/s
EC50 (Hexokinase-4 [17]): 113 nM
fold change (FC) [33]: 1.5
fold change (FC) [34]: 0.08
SMILES: O=C(O)c1ccc(NC(=O)[C@H](CC2CCCCC2)n2cnc(S(=O)(=O)C3CC3)c2)nc1

logD [2]: -1.55
Papp [14]: 0.9 ×10⁻⁶ cm/s
EC50 (Hexokinase-4 [17]): > 10000 nM
SMILES: O=C(O)c1ccc(NC(=O)[C@H](CC2CCOCC2)n2cnc(S(=O)(=O)C3CCC3)c2)nc1

logD [2]: 0.68
SMILES: O=C(O)c1ccc(NC(=O)[C@H](CC2CCCC2)n2cnc(C(F)(F)F)c2)nc1 [PF-04991532]
Activity (Rattus norvegicus [35]): 17.7%

logD [2]: -0.2
EC50 (Hexokinase-4 [12]): 26000 nM
Papp [14]: 0.6 ×10⁻⁶ cm/s
EC50 (Hexokinase-4 [17]): 137 nM
fold change (FC) [33]: 1.68
fold change (FC) [34]: 0.05
SMILES: O=C(O)c1ccc(NC(=O)[C@H](CC2CCCC2)n2cnc(S(=O)(=O)C3CC3)c2)nc1
